Reference: patent US20120190669A1, “OXINDOLE COMPOUNDS” (CYLENE PHARMACEUTICALS, INC., priority 2008, published 2012)

The compounds below were run against recombinant PIM-1 (Homo sapiens, UniProt P11309) (assay: PIM-1 kinase assay (radiometric, 15 uM ATP, DMSO 4%)). Settings: not given.
Type: biochemical
Experimental: The following procedure was used to assay the PIM-1 kinase activity of compounds of the invention. Other methods for assaying PIM-1 and other PIM kinases, as well as methods to assay for activity against the various kinases in FIG. 1, are known in the art.
(specific activity approx. 500 cpm/pmol), DMSO 4% and test inhibitor compound at the required concentration. The reaction was initiated by the addition of the Magnesium ATP mixture. After 40 min incubation at 23° C., the reactions were quenched by the addition of 100 ul 0.75% Phosphoric acid, and the labeled peptide collected by filtration through a phosphocellulose filter plate. The plate was washed 4 times with 0.075% phosphoric acid (100 ul per well) and then, after the addition of scintillation fluid (20 ul per well), the counts were measured by a scintillation counter.

recombinant PIM-1, sequence (P11309 whole entry): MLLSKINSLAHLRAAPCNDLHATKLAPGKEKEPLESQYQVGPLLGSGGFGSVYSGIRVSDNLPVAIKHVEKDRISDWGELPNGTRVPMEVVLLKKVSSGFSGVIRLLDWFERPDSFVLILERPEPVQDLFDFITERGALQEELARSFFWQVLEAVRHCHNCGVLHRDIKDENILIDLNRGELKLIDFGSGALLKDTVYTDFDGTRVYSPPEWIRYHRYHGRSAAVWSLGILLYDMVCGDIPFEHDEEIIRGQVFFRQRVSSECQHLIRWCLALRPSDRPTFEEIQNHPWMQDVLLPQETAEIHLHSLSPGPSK

Compound | inhibition at 2 µM [%]
CCC(=O)Nc1cc(C(=O)NCCN2CCCC2)ccc1-c1ccc(/C=C2/C(=O)Nc3ccccc32)o1 [Compound 168] | -14.9

Same assay, conditions: Table 1; % inhibition at the high dose (2 micromolar) in a single screening assay; 15 μM ATP

inhibition at 2 µM [%] | PIM-1 Inhibition @ 15 μM ATP [%] | Compound
27.6 | – | CN1CCCC(NC(=O)c2cc(-c3ccc(/C=C4/C(=O)Nc5ccc(F)cc54)o3)ccc2Cl)C1 (centres unmarked) [Compound 70]
-17 | – | O=C1Nc2ccc(F)cc2/C1=C\c1ccc(-c2ccc(Cl)c(C(=O)N3CCCCC3)c2)o1 [Compound 77]
19.4 | – | NCc1cccc(-c2ccc(/C=C3/C(=O)Nc4ccccc43)o2)c1 [Compound 165]
-2.65 | – | CN(C)C1CCN(C(=O)c2ccccc2-c2ccc(/C=C3/C(=O)Nc4ccccc43)o2)CC1 [Compound 61]
90.6 | – | CN1CCCCC1CNC(=O)c1ccc(-c2ccc(/C=C3/C(=O)Nc4ccc(F)cc43)o2)cc1 (centres unmarked) [Compound 86]
-4.35 | – | Cn1cncc1CNC(=O)c1ccccc1-c1ccc(/C=C2/C(=O)Nc3ccccc32)o1 [Compound 59]
-19.4 | – | O=C1Nc2ccc(Cl)cc2/C1=C\c1ccc(-c2cccc(C(=O)N3CCCC(O)C3)c2)o1 (centres unmarked) [Compound 178]
1.44 | – | CN1CCCC(NC(=O)c2ccc(-c3ccc(/C=C4/C(=O)Nc5ccccc54)o3)cn2)C1 (centres unmarked) [Compound 129]
11.5 | – | O=C1Nc2ccc(C(=O)NCc3ccccc3)cc2/C1=C\c1ccc(-c2cccc(C(=O)NCCN3CCCC3)c2)o1 [Compound 8]
18.2 | – | CN1CCC(N(C)C(=O)c2ccccc2-c2ccc(/C=C3/C(=O)Nc4ccc(F)cc43)o2)C1 (centres unmarked) [Compound 64]
54.8 | – | CN1CCC(N(C)C(=O)c2ccc(-c3ccc(/C=C4/C(=O)Nc5ccc(F)cc54)o3)cc2)C1 (centres unmarked) [Compound 83]
4.53 | – | CN1CCCCC1CNC(=O)c1ccccc1-c1ccc(/C=C2/C(=O)Nc3ccc(F)cc32)o1 (centres unmarked) [Compound 66]
-21.9 | – | CN1CCCCC1CNC(=O)c1cccc(-c2ccc(/C=C3/C(=O)Nc4cccc(Br)c43)o2)c1 (centres unmarked) [Compound 45]
10.9 | – | CN(C)c1ccc(CNC(=O)c2cccc(-c3ccc(/C=C4/C(=O)Nc5ccc(Cl)cc54)o3)c2)cc1 [Compound 177]
-6.8 | – | COC(=O)c1ccccc1-c1ccc(/C=C2/C(=O)Nc3ccc(F)cc32)o1 [Compound 30]
94.8 | – | O=C1Nc2ccc(F)cc2/C1=C\c1ccc(-c2ccc(C(=O)NCCN3CCCC3)cc2)o1 [Compound 81]
7.61 | – | CN1CCCCC1CNC(=O)c1ccc(-c2ccc(/C=C3/C(=O)Nc4ccccc43)o2)cn1 (centres unmarked) [Compound 133]

inhibition at 2 µM [%] | PIM-1 Inhibition @ 15 μM ATP [%] | Compound
– | 35.20 | O=C1Nc2ccc(F)cc2/C1=C\c1ccc(-c2ccc(Cl)c(C(=O)NCCN3CCCC3)c2)o1 [Compound 12]
24.3 | – | CCN1CCCC1CNC(=O)c1ccc(-c2ccc(/C=C3/C(=O)Nc4ccccc43)o2)cn1 (centres unmarked) [Compound 130]
29.3 | – | O=C1Nc2ccc(Cl)cc2/C1=C\c1ccc(-c2cccc(C(=O)NCCc3ccccn3)c2)o1 [Compound 172]
27.8 | – | CN(C)C1CCN(C(=O)c2cc(-c3ccc(/C=C4/C(=O)Nc5ccc(F)cc54)o3)ccc2Cl)CC1 [Compound 75]
30.5 | – | CN(C)C1CCN(C(=O)c2ccc(-c3ccc(/C=C4/C(=O)Nc5ccccc54)o3)cn2)CC1 [Compound 138]
5.08 | – | CN1CCC(N(C)C(=O)c2ccc(-c3ccc(/C=C4/C(=O)Nc5ccccc54)o3)cn2)C1 (centres unmarked) [Compound 131]
14.5 | – | CC(C)(C)OC(=O)Nc1cccc(-c2ccc(/C=C3/C(=O)Nc4ccccc43)o2)c1 [Compound 181]
12.7 | – | Cn1cncc1CNC(=O)c1cccc(-c2coc(/C=C3/C(=O)Nc4ccc(F)cc43)c2)c1 [Compound 92]
7.15 | – | CN1CCC(N(C)C(=O)c2ccccc2-c2ccc(/C=C3/C(=O)Nc4ccccc43)o2)C1 (centres unmarked) [Compound 58]
33.9 | – | CN1CCCCC1CNC(=O)c1cccc(-c2ccc(/C=C3/C(=O)Nc4cc(F)ccc43)o2)c1 (centres unmarked) [Compound 40]
23 | – | CN1CCN(C(=O)c2cccc(-c3ccc(/C=C4/C(=O)Nc5ccc(Cl)cc54)o3)c2)CC1 [Compound 114]
10.8 | – | CN(C)C1CCN(C(=O)c2cccc(-c3coc(/C=C4/C(=O)Nc5ccc(F)cc54)c3)c2)CC1 [Compound 96]
11.4 | – | O=C1Nc2ccccc2/C1=C\c1ccc(-c2ccccc2C(=O)O)o1 [Compound 31]
29.2 | – | CCN(CC)C(=O)c1cccc(-c2ccc(/C=C3/C(=O)Nc4ccc(Cl)cc43)o2)c1 [Compound 173]
42.6 | – | CN1CCCC(NC(=O)c2cccc(-c3ccc(/C=C4/C(=O)Nc5ccc(Cl)cc54)o3)c2)C1 (centres unmarked) [Compound 111]
36.7 | – | CN(C)CCNC(=O)c1cc(-c2ccc(/C=C3/C(=O)Nc4ccccc43)o2)ccc1Cl [Compound 24]

Same assay, conditions: Table 1; given for compounds with IC50 at or below 2 micromolar; 15 uM ATP; read-out: PIM-1 IC50

IC50 [µM] | Compound
< 2 | CN1CCCCC1CNC(=O)c1ccc(-c2ccc(/C=C3/C(=O)Nc4ccccc43)o2)cc1 (centres unmarked) [Compound 37]
< 1 | CCN(CC)CCNC(=O)c1ccc(Cl)c(-c2ccc(/C=C3/C(=O)Nc4ccc(F)cc43)o2)c1 [Compound 97]
< 1 | O=C1Nc2ccc(Cl)cc2/C1=C\c1ccc(-c2cccc(C(=O)NCCCN3CCOCC3)c2)o1 [Compound 124]
< 1 | CN1CCCCC1CNC(=O)c1ccc(-c2ccc(/C=C3/C(=O)Nc4ccc(F)cc43)o2)cc1 (centres unmarked) [Compound 86]
< 2 | CN1CCC(N(C)C(=O)c2cccc(-c3ccc(/C=C4/C(=O)Nc5ccc(Cl)cc54)o3)c2)C1 (centres unmarked) [Compound 109]
< 2 | CN(C)C1CCN(C(=O)c2ccc(Cl)c(-c3ccc(/C=C4/C(=O)Nc5ccc(F)cc54)o3)c2)CC1 [Compound 103]
< 1 | CN1CCC(N(C)C(=O)c2ccc(-c3ccc(/C=C4/C(=O)Nc5ccc(F)cc54)o3)cc2)C1 (centres unmarked) [Compound 83]
< 1 | CN1CCCN(C(=O)c2cncc(-c3ccc(/C=C4/C(=O)Nc5ccc(Cl)cc54)o3)c2)CC1 [Compound 154]
< 1 | O=C1Nc2ccc(F)cc2/C1=C\c1ccc(-c2ccc(C(=O)NCCN3CCCC3)cc2)o1 [Compound 81]
< 2 | CN1CCCCC1CNC(=O)c1ccc(Cl)c(-c2ccc(/C=C3/C(=O)Nc4ccc(F)cc43)o2)c1 (centres unmarked) [Compound 102]
< 1 | Cn1cncc1CNC(=O)c1ccc(-c2ccc(/C=C3/C(=O)Nc4ccccc43)o2)cn1 [Compound 132]
< 2 | Cc1cc(-c2cccc(C(=O)NCc3cncn3C)c2)oc1/C=C1/C(=O)Nc2ccccc21 [Compound 158]
< 1 | CCN1CCCC1CNC(=O)c1ccc(-c2ccc(/C=C3/C(=O)Nc4ccccc43)o2)cc1 (centres unmarked) [Compound 32]
< 2 | O=C1Nc2ccccc2/C1=C\c1ccc(-c2ccccc2O)o1 [Compound 162]
< 1 | CN(CCN1CCCC1)C(=O)c1ccc(-c2ccc(/C=C3/C(=O)Nc4ccccc43)o2)cc1 [Compound 34]
< 1 | O=C1Nc2ccc(Cl)cc2/C1=C\c1ccc(-c2cccc(C(=O)NCC(O)c3ccccc3)c2)o1 (centres unmarked) [Compound 180]
< 1 | O=C1Nc2ccc(Cl)cc2/C1=C\c1ccc(-c2cccc(C(=O)NC3=NCCS3)c2)o1 [Compound 174]
< 1 | CCN1CCCC1CNC(=O)c1cncc(-c2ccc(/C=C3/C(=O)Nc4ccc(Cl)cc43)o2)c1 (centres unmarked) [Compound 151]
< 2 | O=C1Nc2ccc(F)cc2/C1=C\c1ccc(-c2cccc(C(=O)NCc3ccncc3)c2)o1 [Compound 21]
< 1 | O=C(CN1CCCC1)Nc1cccc(-c2ccc(/C=C3/C(=O)Nc4ccccc43)o2)c1 [Compound 186]
< 1 | CN1CCCN(C(=O)c2cccc(-c3ccc(CC4C(=O)Nc5ccc(Cl)cc54)o3)c2)CC1 (centres unmarked) [Compound 197]

Same assay, conditions: Table 3; DMSO 4%; read-out: PIM1: IC50 (DMSO 4%)

IC50 [µM] | Compound
> 1.1 | CN1CCCN(C(=O)c2cccc(-c3ccc(/C(=C4/C(=O)Nc5ccc(Cl)cc54)C4CC4)o3)c2)CC1
